Square brackets hold non-standard residues; d marks the D form. Peptide text beside a SMILES is read from it. Pen = CC(C)(S)[C@H](N)C(=O)O; Mpa = O=C(O)CCS

For one assay, the species on record is Homo sapiens. The assay is described as follows: Functional inhibition of the GPIIb-IIIa receptor was reflected as its ability to antagonize ADP induced platelet aggregation in human platelet-rich plasma. The assay is classed as organism-based.
In assay [1] the target is Integrin alpha-IIb/beta-3 (Homo sapiens, UniProt P05106+P08514). The assay is described as follows: Inhibition of platelet glycoprotein alpha IIb beta-3 integrin in ELISA. On the technique in general: An ELISA detects its analyte on a solid surface through an enzyme-linked reagent.
Integrin alpha-IIb/beta-3, sequence (P05106 27-788 limits assumed): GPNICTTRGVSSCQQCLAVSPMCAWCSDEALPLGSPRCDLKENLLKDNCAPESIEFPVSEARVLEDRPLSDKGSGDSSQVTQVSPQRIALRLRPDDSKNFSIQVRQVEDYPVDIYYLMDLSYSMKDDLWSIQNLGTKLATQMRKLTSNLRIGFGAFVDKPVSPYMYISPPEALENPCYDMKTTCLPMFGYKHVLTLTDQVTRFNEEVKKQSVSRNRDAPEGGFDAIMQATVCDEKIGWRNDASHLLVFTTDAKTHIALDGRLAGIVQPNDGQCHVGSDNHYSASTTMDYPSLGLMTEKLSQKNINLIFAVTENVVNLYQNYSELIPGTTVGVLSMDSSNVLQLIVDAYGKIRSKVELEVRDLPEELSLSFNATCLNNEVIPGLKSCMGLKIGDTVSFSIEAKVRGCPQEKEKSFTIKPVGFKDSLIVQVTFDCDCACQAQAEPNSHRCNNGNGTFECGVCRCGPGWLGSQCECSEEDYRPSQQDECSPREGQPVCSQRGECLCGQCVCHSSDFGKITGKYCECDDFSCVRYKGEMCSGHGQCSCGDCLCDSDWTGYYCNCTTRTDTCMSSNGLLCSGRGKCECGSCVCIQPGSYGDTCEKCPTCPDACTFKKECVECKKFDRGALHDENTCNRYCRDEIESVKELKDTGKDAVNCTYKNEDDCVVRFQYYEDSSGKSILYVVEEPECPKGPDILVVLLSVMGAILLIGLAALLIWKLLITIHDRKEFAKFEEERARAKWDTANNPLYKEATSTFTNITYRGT
Integrin alpha-IIb/beta-3, sequence (P08514 32-887 limits assumed): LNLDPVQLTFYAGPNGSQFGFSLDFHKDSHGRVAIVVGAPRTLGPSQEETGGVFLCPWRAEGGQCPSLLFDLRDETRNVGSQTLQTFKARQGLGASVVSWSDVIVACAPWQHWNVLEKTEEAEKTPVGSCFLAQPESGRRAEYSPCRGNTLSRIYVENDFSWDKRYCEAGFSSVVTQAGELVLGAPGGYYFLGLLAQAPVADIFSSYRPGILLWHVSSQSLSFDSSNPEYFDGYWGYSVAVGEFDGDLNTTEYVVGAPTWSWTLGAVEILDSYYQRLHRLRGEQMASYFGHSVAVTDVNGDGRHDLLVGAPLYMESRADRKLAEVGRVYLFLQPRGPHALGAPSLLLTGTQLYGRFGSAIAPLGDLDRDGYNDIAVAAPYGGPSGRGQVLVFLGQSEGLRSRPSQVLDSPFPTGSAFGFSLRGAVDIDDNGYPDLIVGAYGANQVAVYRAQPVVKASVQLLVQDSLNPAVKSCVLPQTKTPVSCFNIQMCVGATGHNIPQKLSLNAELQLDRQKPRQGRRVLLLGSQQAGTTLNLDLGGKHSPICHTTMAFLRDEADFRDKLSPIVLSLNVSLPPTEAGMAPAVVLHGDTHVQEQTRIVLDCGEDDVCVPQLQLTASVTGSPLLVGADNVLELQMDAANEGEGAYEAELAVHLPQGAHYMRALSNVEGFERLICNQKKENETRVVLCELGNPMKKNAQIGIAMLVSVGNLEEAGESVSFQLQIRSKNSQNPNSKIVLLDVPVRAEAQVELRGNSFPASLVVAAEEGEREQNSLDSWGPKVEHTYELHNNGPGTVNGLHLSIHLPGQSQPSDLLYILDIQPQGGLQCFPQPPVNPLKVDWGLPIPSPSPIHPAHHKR
Integrin alpha-IIb/beta-3, sequence (P08514 891-1039 limits assumed): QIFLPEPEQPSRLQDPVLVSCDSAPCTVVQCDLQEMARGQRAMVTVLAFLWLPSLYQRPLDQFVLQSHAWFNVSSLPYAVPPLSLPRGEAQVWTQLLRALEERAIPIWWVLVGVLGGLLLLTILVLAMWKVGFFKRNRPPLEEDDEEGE

Take `N=C(N)c1ccc2c(C(=O)NCCCCCCC(=O)O)c[nH]c2c1`: the half-inhibitory concentration (IC50) (usually the concentration at which inhibition is half-maximal) in the assay listed under Homo sapiens came to 650 nM; in assay [1], 0.1 µM. The like results for `N=C(N)c1ccc2cc(C(=O)NCCCCCCC(=O)O)[nH]c2c1` were, in that order, 1300 nM and 0.15 µM. In the assay filed under Homo sapiens, `N=C(N)c1ccc(NCC(=O)NCCCCCCC(=O)O)cc1` showed a concentration for half-maximal inhibition (IC50) of 67000 nM. The molecule `N=C(N)c1ccc2[nH]c(C(=O)NCCCCCCCC(=O)O)cc2c1` showed a 50% inhibitory concentration (IC50) in the assay listed under Homo sapiens of over 100000 nM. On the same count and under the same terms, with `N=C(N)c1ccc2[nH]c(C(=O)NCCCCCCC(=O)O)cc2c1` the figure was 2700 nM.

Regarding `N=C(N)c1ccc2[nH]c(C(=O)NCCCCCC(=O)O)cc2c1`, the IC50 in the assay filed under Homo sapiens was over 100000 nM; in assay [1] it was 30 µM. `N=C(N)c1cccc(NCC(=O)NCCCCCCC(=O)O)c1`: the IC50 in the assay filed under Homo sapiens was over 100000 nM; in assay [1], 64 µM.

Turning to `N=C(N)c1ccc2[nH]cc(C(=O)NCCCCCCC(=O)O)c2c1`, the IC50 is over 100000 nM in the assay listed under Homo sapiens and over 100 µM in assay [1]. Regarding `N=C(N)c1ccc2[nH]cc(C(=O)NCCCCCCCC(=O)O)c2c1`, the IC50 is over 100000 nM in the assay filed under Homo sapiens and over 100 µM in assay [1].

Consider `CC(C)(S)[C@H](NC(=O)[C@H](CCCN=C(N)N)NC(=O)[C@H](Cc1c[nH]c2ccccc12)NC(=O)[C@H](CC(=O)O)NC(=O)CNC(=O)[C@H](CCCN=C(N)N)NC(=O)CCS)C(N)=O` ([Mpa]RGDWR[Pen]-NH2), for which the concentration for half-maximal inhibition (IC50) was determined as 280 nM in the assay filed under Homo sapiens and 0.12 µM in assay [1].

Values taken from ChEMBL document CHEMBL1128907, “Platelet glycoprotein IIbIIIa receptor (GPIIbIIIa) antagonists derived from amidinoindoles” (Bioorg Med Chem Lett, 1996).
